Tested on: primary culture of rat embryo mesencephalic cells (microglia, astrocytes and neurons)
Experiment: Neuroprotection against LPS damage (NO, TNF-α, IL-1β release, tyrosine hydroxylase positive neurons), Example 848
Format: cell-based
Conditions: 10 uM; for % reversion of NO release from neurons: after 5 days of LPS exposure
Experimental: Drug preparation. […] The stock solutions will be prepared 1000× the concentration in 100% DMSO. The final concentration of the vehicle (DMSO) is set at 0.1%.
Test animals. Pregnant Wistar rats (Janvier; France) are used for the study. They are group-housed and maintained in a room with controlled temperature (21-22° C.) and a reversed light-dark cycle (12 h/12 h; lights on: 17:30-05:30; lights off: 05:30-17:30) with food and water available ad libitum.
The protocol is performed in 3 independent cultures. For each culture, each condition is performed in sextuplicate.
Female rat of 15 days gestation is killed by cervical dislocation. Fetuses are removed from the uterus and their brains are harvested and placed in ice-cold medium (Leibovitz's L15 medium, Gibco). Only ventral mesencephalic flexure is used for the cell preparations. The midbrain is dissociated by trypsinization. The reaction is stopped, and the suspension is triturated and centrifuged. The pellet of dissociated cells is resuspended in culture medium consisted of DMEM-F12 (Gibco), containing 10% FBS (ATCC), 10% Horse serum (Gibco) and 2 mM L-glutamine (Gibco). Viable cells are counted and seeded on 96-well plates, precoated with poly-L-lysine. Cells are maintained in a humidified incubator at 37° C. in 5% CO2-95% air atmosphere. Half of the medium is changed on day 2 and day 5.
Treatment. On day 7, culture media are removed and replaced by new medium consisting of DMEM-F12 (Gibco) supplemented with 2% FBS (ATCC), 2% Horse serum (Gibco) and 2 mM L-glutamine (Gibco) and containing vehicle or test substances. After 1-hour exposure, LPS at 10 ng/ml is added and exposure further continued for 24 hours or 5 days period.
Inflammatory response measurement and neuronal death evaluation. NO production is measured in the media 24 h and 5 days after LPS exposure using the Griess reagent kit (Molecular Probes). The Griess reagent Assay is a colorimetric reaction assay which measures the conversion of a sulfanilic salt into an azo dye product by nitrite. Visible wavelength absorbance data is collected using a 96-well plate reader at 570 nm (Multiskan EX, Thermo Fisher, France).
IL-10 and TNF-α release are measured in the media 24 h after LPS exposure using the ELISA development kit (PeproTech). The ELISA plate, previously coated with anti-IL-10 or anti-TNF-α antibody at 1 μg/ml, is incubated 1 h with PBS containing 1% of BSA (bovine serum albumin). […] Visible wavelength absorbance data is collected using a 96-well plate reader at 405 nm with wavelength correction set at 650 nm (Multiskan EX, Thermo Fisher, France). […]
Statistical Analysis. The drug-induced effect on NO and cytokines is calculated by setting the response of the LPS-stimulated control as 100%. […]

Structure (SMILES): CC(=O)CC(=O)SCCNC(=O)CCNC(=O)[C@@H]1OP(=O)(O)OCC1(C)C [Compound 42]
- % reversion of TH positive neurons (after 5 days of LPS exposure (Example 949)): ≥15%
- % reversion of TH positive neurons (after 5 days of LPS exposure (Example 950)): ≥50%
- % reversion of NO release from neurons (compared to LPS induction alone): ≥10%
- % reversion of NO release from neurons (LPS-induced NO release): ≥10%

From patent US12037354B2, “Cyclic pantetheine derivatives and uses thereof” (VectivBio Comet AG, priority 2018, dated 2024)
